Experimental findings from ChEMBL document CHEMBL1201862, “PubChem BioAssay data set” (2004) are described below.

Some test systems named below: M19-MEL; ACHN; SNB-75; HCT-116; HL-60; CCRF-CEM; OVCAR-3; A498; K562; LOX IMVI; M14; NCI-H460; HOP-62; SK-MEL-2; A549; UACC-62; IGROV-1; KM12; OVCAR-8.
Common to all, as to test: NCI anticancer screen, dose series, 48 h

The structures appear in SMILES notation.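 Values below derive from 48-hour exposures of cells grown in 96-well plates, with endpoints linearly interpolated between the two concentrations bracketing the appropriate inhibition level. Here, GI50 denotes the concentration required for 50% inhibition of growth.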 The source made the active and inactive calls. Cut-off read from the data, not from the text of the source: active = GI50 up to about 1.1 µM and inactive = higher. A value given as a limit tells only on which side of the number the result lay.

With `CCCCCCc1cc(C(=O)Nc2cccc(C(F)(F)F)c2)nc(N)n1`, the GI50 in the assay on M19-MEL, in the assay with ACHN, in the assay with SNB-75, in the assay with HCT-116, in the assay on HL-60 and in the assay with CCRF-CEM was > 100 µM (inactive) in each case. The GI50 in the assay on OVCAR-3, in the assay on A498, in the assay on K562, in the assay with LOX IMVI, with M14 and with NCI-H460 was > 100 µM (inactive) each time. For the same compound, the GI50 with HOP-62 is 63.4 µM (inactive); in the assay on SK-MEL-2 it was > 100 µM (inactive); in the assay with A549, > 100 µM (inactive); in the assay on UACC-62, > 100 µM (inactive); with IGROV-1 it was > 100 µM (inactive); in the assay with KM12, > 100 µM (inactive).
For the compound `C/C(=N\O)c1sc(-n2nc(-c3ccccc3)cc2-c2ccccc2)nc1C`, the GI50 in the assay with M19-MEL is 13.3 µM (inactive); in the assay on ACHN it was 11.9 µM (inactive); in the assay on SNB-75, 14.6 µM (inactive); with HCT-116, 12.6 µM (inactive); in the assay on HL-60, 14 µM (inactive); with CCRF-CEM, 12.3 µM (inactive). Further, the GI50 in the assay on OVCAR-3 is 16.3 µM (inactive); in the assay with A498, 25.4 µM (inactive); with K562, 12.6 µM (inactive); with LOX IMVI it was 12.4 µM (inactive); in the assay with M14, 13.2 µM (inactive); in the assay on NCI-H460 it was 15.6 µM (inactive). For the same compound, the GI50 was 12 µM (inactive) with HOP-62; 28.3 µM (inactive) with SK-MEL-2; 14.2 µM (inactive) in the assay with A549; 11.6 µM (inactive) in the assay with UACC-62; 12.2 µM (inactive) in the assay on IGROV-1; 11.7 µM (inactive) with KM12. In the assay on OVCAR-8, the GI50 is 12 µM (inactive).
For the compound `N#CC1=C(c2ccccc2)C(O)(c2ccccc2)NC1=O` (stereo not drawn), the GI50 in the assay on M19-MEL is > 100 µM (inactive); with ACHN, 37.5 µM (inactive); in the assay with SNB-75 it was > 100 µM (inactive); with HCT-116 it was > 100 µM (inactive); with HL-60, > 100 µM (inactive); in the assay with CCRF-CEM it was 70.5 µM (inactive). The GI50 is > 100 µM (inactive) with OVCAR-3; 24.6 µM (inactive) in the assay on A498; > 100 µM (inactive) with K562; > 100 µM (inactive) in the assay on LOX IMVI; 52.4 µM (inactive) in the assay with M14; 58.3 µM (inactive) in the assay with NCI-H460. The GI50 was > 100 µM (inactive) in the assay on HOP-62; 99.1 µM (inactive) in the assay with SK-MEL-2; > 100 µM (inactive) with A549; > 100 µM (inactive) in the assay on UACC-62; > 100 µM (inactive) with IGROV-1; > 100 µM (inactive) with KM12. For the same compound, the GI50 in the assay with OVCAR-8 is > 100 µM (inactive).
For `COc1c2c(cc3nc4ccccc4nc13)CCC(C(C)(C)O)C2` (stereo not drawn), the GI50 in the assay on M19-MEL is > 100 µM (inactive); with ACHN, > 100 µM (inactive); in the assay with SNB-75, > 100 µM (inactive); with HCT-116, > 100 µM (inactive); in the assay on HL-60, 26.4 µM (inactive); in the assay on CCRF-CEM, 45.1 µM (inactive). In addition, the GI50 with OVCAR-3 is 49.5 µM (inactive); with A498, > 100 µM (inactive); in the assay with K562, 73.8 µM (inactive); in the assay with LOX IMVI, > 100 µM (inactive); with M14 it was > 100 µM (inactive); with NCI-H460 it was > 100 µM (inactive). In addition, the GI50 in the assay with HOP-62 was > 100 µM (inactive); with SK-MEL-2, > 100 µM (inactive); in the assay with A549 it was > 100 µM (inactive); with UACC-62, > 100 µM (inactive); with IGROV-1, > 100 µM (inactive); in the assay on KM12, 82.6 µM (inactive). Moreover, the GI50 with OVCAR-8 was > 100 µM (inactive).
With `COc1ccc(/C=C2/CCCC/C2=N/O)cc1`, the GI50 was > 100 µM (inactive) in the assay with M19-MEL; 88.9 µM (inactive) with ACHN; 31.6 µM (inactive) with SNB-75; 87.7 µM (inactive) in the assay with HCT-116; > 100 µM (inactive) in the assay with HL-60; 51.6 µM (inactive) with CCRF-CEM. Further, the GI50 was > 100 µM (inactive) in the assay with OVCAR-3; 24.2 µM (inactive) in the assay with A498; > 10 µM (inactive) with K562; 29.6 µM (inactive) with LOX IMVI; > 100 µM (inactive) in the assay with M14; > 100 µM (inactive) in the assay with NCI-H460. Further, the GI50 in the assay with HOP-62 was > 100 µM (inactive); in the assay with SK-MEL-2 it was > 100 µM (inactive); in the assay on A549, > 100 µM (inactive); with UACC-62 it was > 100 µM (inactive); with IGROV-1, 41 µM (inactive); in the assay with KM12 it was > 100 µM (inactive). The GI50 in the assay with OVCAR-8 is > 100 µM (inactive).
On to `Cc1nn(C)cc1P(=S)(c1ccccc1)c1ccccc1`, for which the GI50 in the assay with M19-MEL was 59.3 µM (inactive); in the assay with ACHN, 61.7 µM (inactive); in the assay on SNB-75, 24.4 µM (inactive); with HCT-116, 31.8 µM (inactive); in the assay with HL-60, 18.6 µM (inactive); in the assay with CCRF-CEM, 31.8 µM (inactive). For the same compound, the GI50 in the assay on OVCAR-3 was > 100 µM (inactive); in the assay with A498, > 100 µM (inactive); in the assay with K562, 20.6 µM (inactive); with LOX IMVI, 30.3 µM (inactive); in the assay on M14 it was 71.6 µM (inactive); in the assay on NCI-H460 it was 40.5 µM (inactive). Moreover, the GI50 is 70.3 µM (inactive) in the assay with HOP-62; > 100 µM (inactive) with SK-MEL-2; 55 µM (inactive) in the assay on A549; 47 µM (inactive) in the assay with UACC-62; > 100 µM (inactive) in the assay on IGROV-1; 36.4 µM (inactive) in the assay on KM12. In addition, the GI50 with OVCAR-8 is 54.3 µM (inactive).
As to `CCCCN(C)CC(C(C)=O)C(c1ccccc1)c1c(O)c2ccccc2oc1=O` (stereo not drawn), the GI50 in the assay with M19-MEL is > 100 µM (inactive); with ACHN, > 100 µM (inactive); with SNB-75 it was 65.2 µM (inactive); in the assay on HCT-116, > 100 µM (inactive); with HL-60, > 100 µM (inactive); in the assay with CCRF-CEM, > 100 µM (inactive). In addition, the GI50 with OVCAR-3, in the assay with A498, with K562, in the assay with LOX IMVI, in the assay on M14 and in the assay with NCI-H460 was > 100 µM (inactive) each time. Moreover, the GI50 with HOP-62, in the assay with SK-MEL-2, in the assay on A549, in the assay with UACC-62, in the assay with IGROV-1 and in the assay with KM12 was > 100 µM (inactive) throughout. Besides, the GI50 with OVCAR-8 is > 100 µM (inactive).
Consider `COC(=O)C1=C(c2ccc3c(c2)OCO3)OC(c2ccc3c(c2)OCO3)C1` (stereo not drawn), for which the GI50 in the assay on M19-MEL was > 100 µM (inactive); in the assay on ACHN, 80.9 µM (inactive); with SNB-75, > 100 µM (inactive); in the assay with HCT-116 it was > 100 µM (inactive); with HL-60 it was > 100 µM (inactive); with CCRF-CEM, > 100 µM (inactive). Further, the GI50 with OVCAR-3 was > 100 µM (inactive); with A498, > 100 µM (inactive); with K562, > 100 µM (inactive); in the assay with LOX IMVI it was 28.3 µM (inactive); in the assay with M14 it was > 100 µM (inactive); with NCI-H460, > 100 µM (inactive). In addition, the GI50 was > 100 µM (inactive) in the assay with HOP-62; > 100 µM (inactive) in the assay on SK-MEL-2; 78.2 µM (inactive) with A549; > 100 µM (inactive) in the assay with UACC-62; > 100 µM (inactive) with IGROV-1; 65.2 µM (inactive) in the assay on KM12. Moreover, the GI50 with OVCAR-8 is > 100 µM (inactive).
With `c1ccc2c(c1)C1CCCCCC21N1CCOCC1` (stereo not drawn), the GI50 in the assay with M19-MEL is > 100 µM (inactive); in the assay on ACHN, > 100 µM (inactive); in the assay on SNB-75 it was 34.8 µM (inactive); with HCT-116, 54.2 µM (inactive); in the assay with HL-60, 44.6 µM (inactive); in the assay with CCRF-CEM it was 97.7 µM (inactive). Also, the GI50 in the assay on OVCAR-3 was 20.6 µM (inactive); in the assay with A498, > 100 µM (inactive); with K562 it was 45.1 µM (inactive); in the assay on LOX IMVI, > 100 µM (inactive); with M14, 98.2 µM (inactive); in the assay on NCI-H460 it was 69 µM (inactive). Moreover, the GI50 in the assay with HOP-62, in the assay with SK-MEL-2, in the assay with A549, in the assay on UACC-62, in the assay on IGROV-1 and with KM12 was > 100 µM (inactive) each time. Moreover, the GI50 in the assay with OVCAR-8 was > 100 µM (inactive).
As to `C=C[C@]1(C)CCC2=C(CCC3C2(C)CCC[C@@]3(C)COC(C)=O)C1` (stereo partly drawn), the GI50 in the assay on M19-MEL is 21.7 µM (inactive); in the assay on ACHN it was 17.5 µM (inactive); in the assay with SNB-75, 18.1 µM (inactive); in the assay with HCT-116, 17.2 µM (inactive); in the assay with HL-60, 19.7 µM (inactive); in the assay on CCRF-CEM, 17.6 µM (inactive). The GI50 was 17.7 µM (inactive) in the assay with OVCAR-3; 25.4 µM (inactive) with A498; 16.5 µM (inactive) in the assay with K562; 18.6 µM (inactive) in the assay with LOX IMVI; 20.9 µM (inactive) with M14; 17.6 µM (inactive) in the assay on NCI-H460. The GI50 is 22.9 µM (inactive) in the assay with HOP-62; 14.6 µM (inactive) in the assay with SK-MEL-2; 22.8 µM (inactive) in the assay on A549; 21.1 µM (inactive) in the assay with UACC-62; 20.7 µM (inactive) with IGROV-1; 19.3 µM (inactive) with KM12. Further, the GI50 with OVCAR-8 is 19.1 µM (inactive).
As to `COc1c(Cl)c2c(c(OC)c1OC)-c1ccc(OC)c(=O)c(Cl)c1C(NC(C)=O)CC2` (stereo not drawn), the GI50 is 0.262 µM (active) with M19-MEL; 0.668 µM (active) in the assay with ACHN; 0.1 µM (active) in the assay with SNB-75; 0.125 µM (active) with HCT-116; 0.169 µM (active) with HL-60; 0.305 µM (active) in the assay with CCRF-CEM. In addition, the GI50 in the assay with OVCAR-3 was 0.117 µM (active); with A498, 0.0593 µM (active); in the assay with K562, 0.139 µM (active); with LOX IMVI, 0.296 µM (active); in the assay with M14 it was 0.244 µM (active); with NCI-H460, 0.134 µM (active). Moreover, the GI50 was 0.306 µM (active) in the assay with HOP-62; 0.284 µM (active) in the assay on SK-MEL-2; 0.225 µM (active) in the assay with A549; 0.108 µM (active) with UACC-62; 0.466 µM (active) with IGROV-1; 0.104 µM (active) in the assay with KM12. The GI50 in the assay with OVCAR-8 is 0.353 µM (active).
